Test results: PubChem BioAssay (NCI)
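Assay format: 96-well plates, 48-hour exposure. GI50 marks 50% less growth. TGI is the concentration that stops growth completely.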

Key:
Assay in all cases: NCI anticancer screen, dose series, 48 h
DU-145 prostate = test system: DU-145 prostate
EKVX NSCLC = test system: EKVX NSCLC
HOP-92 NSCLC = test system: HOP-92 NSCLC
HT29 colon = test system: HT29 colon
NCI-H23 lung = test system: NCI-H23 lung
NCI-H522 lung = test system: NCI-H522 lung
RXF 393 renal = test system: RXF 393 renal
SR leukemia = test system: SR leukemia
T-47D breast = test system: T-47D breast
U251 CNS = test system: U251 CNS

| SMILES | GI50 (DU-145 prostate) | TGI (DU-145 prostate) | GI50 (EKVX NSCLC) | TGI (EKVX NSCLC) | GI50 (HOP-92 NSCLC) | TGI (HOP-92 NSCLC) | GI50 (HT29 colon) | TGI (HT29 colon) | GI50 (NCI-H23 lung) | TGI (NCI-H23 lung) | GI50 (NCI-H522 lung) | TGI (NCI-H522 lung) | GI50 (RXF 393 renal) | TGI (RXF 393 renal) | GI50 (SR leukemia) | TGI (SR leukemia) | GI50 (T-47D breast) | TGI (T-47D breast) | GI50 (U251 CNS) | TGI (U251 CNS) |
| --- | --- | --- | --- | --- | --- | --- | --- | --- | --- | --- | --- | --- | --- | --- | --- | --- | --- | --- | --- | --- |
| O=C(/C=C/c1ccc(Cl)cc1)c1ccc(Nc2ccnc3cc(Cl)ccc23)cc1 | 27.6 µM | > 100 µM | > 84.6 µM | > 100 µM | > 40.6 µM | > 100 µM | 1.07 µM | > 100 µM | > 100 µM | > 100 µM | > 100 µM | > 100 µM | 10.7 µM | > 83.8 µM | 0.565 µM | > 100 µM | > 55.7 µM | > 100 µM | 28.8 µM | > 100 µM |
| COC(=O)C1=C(C)NC(C)=C(C(=O)OCCCN2CCC(c3ccccc3)(c3ccccc3)CC2)C1c1cccc([N+](=O)[O-])c1 (stereo not given) | – | 3.31 µM | – | 6.42 µM | – | 4.26 µM | – | 2.71 µM | – | 3.32 µM | – | 4.72 µM | – | 3.43 µM | – | 4.5 µM | – | 30.2 µM | – | 3.21 µM |
| O=C1OC(O)[C@@H]2[C@H]1[C@H]1CC[C@@H]2O1 (stereo not given in full) | > 87.3 µM | > 100 µM | > 100 µM | > 100 µM | 20.3 µM | > 69.9 µM | 4.99 µM | 32.2 µM | > 100 µM | > 100 µM | 26.3 µM | 74.9 µM | 57 µM | > 100 µM | > 100 µM | > 100 µM | 15.2 µM | 42.6 µM | > 100 µM | > 100 µM |
| Cn1cnc([N+](=O)[O-])c1S(=O)(=O)Oc1cccc2ccccc12 | 3.14 µM | 8.03 µM | 13.9 µM | 34.8 µM | 2.6 µM | 11.5 µM | 1.8 µM | 3.99 µM | 10 µM | 32.1 µM | 0.271 µM | 1.18 µM | 2.3 µM | 4.3 µM | 1.74 µM | 4.57 µM | 1.91 µM | 4.29 µM | 8.89 µM | 34.7 µM |
| CCN(CC)c1ccc(-c2cc(-c3cc(OC)c(OC)c(OC)c3)nc(N3CCOCC3)c2C#N)cc1 | 2.18 µM | > 100 µM | 2.64 µM | > 100 µM | 0.796 µM | 4.42 µM | 0.532 µM | 8.87 µM | 5.25 µM | > 100 µM | 7.07 µM | 83.3 µM | 1.01 µM | 21 µM | 0.163 µM | 0.672 µM | 1.29 µM | > 100 µM | 2.48 µM | > 100 µM |
| COc1cc(NCc2ccc3oc(=O)c(-c4ccccc4)nc3c2)cc(OC)c1OC | – | > 10 µM | – | > 10 µM | – | > 10 µM | – | > 10 µM | – | > 10 µM | – | > 10 µM | – | > 10 µM | – | > 10 µM | – | > 10 µM | – | > 10 µM |
| Cc1c2c(nn1-c1ccc(S(=O)(=O)/N=C3\SCCC(=O)N3c3ccccc3)cc1)-c1ccccc1CC2 | > 100 µM | > 100 µM | 94 µM | > 100 µM | 81.2 µM | > 100 µM | > 100 µM | > 100 µM | > 100 µM | > 100 µM | 91.4 µM | > 100 µM | 70.9 µM | > 100 µM | 65 µM | > 100 µM | > 100 µM | > 100 µM | > 100 µM | > 100 µM |
| Cc1ccc(S(=O)(=O)N/N=C/C2(c3ccccc3)c3ccccc3-c3ccccc32)cc1 | – | 27.1 µM | – | 30.2 µM | – | 25.5 µM | – | 26.3 µM | – | 37.1 µM | – | 28.6 µM | – | 27.3 µM | – | > 100 µM | – | 44 µM | – | 26.7 µM |
| C=C1C(=O)O[C@H]2[C@H]1CC/C(COC(=O)c1c[nH]c3ccccc13)=C\CC[C@@]1(C)O[C@@H]21 | 0.383 µM | 1.4 µM | 0.315 µM | 2.01 µM | 0.169 µM | 0.45 µM | 0.249 µM | 0.58 µM | 1.29 µM | 3.76 µM | 0.194 µM | 0.412 µM | 0.19 µM | 0.391 µM | 0.285 µM | 1.33 µM | 0.401 µM | 2.26 µM | 0.616 µM | 1.93 µM |
| COc1cc(OC)cc(-c2cc(=O)c3c(OC)c(OC)c(OC)c(OC)c3o2)c1 | – | > 100 µM | – | > 100 µM | – | 90.8 µM | – | > 100 µM | – | > 100 µM | – | 51.1 µM | – | 84.8 µM | – | > 100 µM | – | 64.1 µM | – | > 100 µM |
| CCCCCCCC(=O)SCC/C=C/[C@@H]1CC(=O)NCc2cc(ccn2)C2=N[C@@](C)(CS2)C(=O)N[C@@H](C(C)C)C(=O)O1 | 0.0138 µM | > 33.3 µM | 0.0376 µM | > 33.3 µM | 0.0268 µM | 0.214 µM | 0.0112 µM | > 33.3 µM | 0.0394 µM | > 33.3 µM | 0.00721 µM | 0.204 µM | 0.0128 µM | 0.0822 µM | 0.00845 µM | > 33.3 µM | 0.0838 µM | 0.616 µM | 0.0291 µM | 0.309 µM |
| CN(C(=O)c1ccc(C(F)(F)F)cc1)c1ccc(Oc2ccc3c(c2)cc(C(=O)N2CCN(Cc4ccc(OC(F)F)cc4)CC2)n3C)nc1 | > 100 µM | > 100 µM | < 0.01 µM | > 100 µM | 3.02 µM | > 88.2 µM | 33.2 µM | > 100 µM | < 0.01 µM | > 100 µM | 0.677 µM | > 90 µM | 49.2 µM | > 100 µM | < 0.01 µM | > 100 µM | 0.253 µM | > 58.2 µM | 6 µM | > 100 µM |
| Cc1cc(/C=C/c2ccc3cc(N(C)C)ccc3[n+]2C)c(C)n1-c1ccccc1 | 0.175 µM | 0.846 µM | 0.102 µM | 3.9 µM | 0.193 µM | 1.33 µM | 0.133 µM | 2.52 µM | 0.082 µM | 1.76 µM | 0.103 µM | 0.989 µM | 0.199 µM | 0.987 µM | 0.0442 µM | 1.42 µM | 0.0635 µM | 1.15 µM | 0.129 µM | 1.16 µM |
